Laboratory results from patent publication US9469650B2, “Melampomagnolide B derivatives” (BOARD OF TRUSTEES OF THE UNIVERSITY OF ARKANSAS, priority 2013, dated 2016).

Key:
OVCAR-4 = experiment: panel of 60 human tumor cell lines, growth inhibition (Ovarian Cancer); format: cell-based; conditions: Homo sapiens, OVCAR-4, five dose
[1] = tested on: panel of 60 human tumor cell lines; experiment: panel of 60 human tumor cell lines, whole panel or sub-panel (single concentration screen, summaries); format: cell-based; conditions: single concentration of 10^−5 M, read-out: growth inhibition in at least eight human cancer cell lines from the panel
HL-60(TB) = experiment: cells; conditions: Homo sapiens
MALME-3M = experiment: panel of 60 human tumor cell lines, growth inhibition (Melanoma)
RPMI-8226 = experiment: panel of 60 human tumor cell lines, growth inhibition (Leukemia)

Excerpt for AML 052308 cells: Derivatives were screened for antileukemic activity against AML cells in culture (See FIGS. 1-7).

Which results are given for C=C1C(=O)O[C@H]2[C@H]1CC/C(COC(=O)NCCN1CCCC1)=C\CC[C@@]1(C)O[C@@H]21 [JVM 59, ((1aR,7aS,10aS,10bS,E)-1a-methyl-8-methylene-9-oxo-1a,2,3,6,7,7a,8,9,10a,10b-decahydrooxireno[2′,3′:9,10]cyclodeca[1,2-b]furan-5-yl)methyl-(2-(pyrrolidin-1-yl)ethyl)carbamate]?
GI50 (OVCAR-4): 10.4 µM; IC (TGI) (OVCAR-4): 24.7 µM; CC50 (OVCAR-4; read-out: LC50 (the source's name)): 58.5 µM; inhibition at 10 µM [1]: > 60%; GI50 (HL-60(TB); HL-60): 4.15 µM; CC50 (HL-60(TB); HL-60, read-out: LC50): 70.3 µM; IC (TGI) (HL-60(TB); HL-60, read-out: TGI): 18.3 µM; cytotoxicity compared to MMB (AML 052308 cells): almost equal cytotoxicity to MMB; GI50 (MALME-3M; Homo sapiens, Malme-3M): 4.18 µM; CC50 (MALME-3M; Homo sapiens, Malme-3M, read-out: LC50): 55.2 µM; TGI (MALME-3M; MALME-3M, five dose): 1.59E−5; Percent Growth (MALME-3M; MALME-3M, Log10 Concentration −4.0): −74%; Percent Growth (MALME-3M; MALME-3M, Log10 Concentration −5.0): 18%; Percent Growth (MALME-3M; MALME-3M, Log10 Concentration −6.0): 102%; Percent Growth (MALME-3M; MALME-3M, Log10 Concentration −7.0): 93%; Percent Growth (MALME-3M; MALME-3M, Log10 Concentration −8.0): 91%; GI50 (RPMI-8226; Homo sapiens, RPMI-8226): 8.71 µM; CC50 (RPMI-8226; Homo sapiens, RPMI-8226, read-out: LC50): 97.1 µM; TGI (RPMI-8226; RPMI-8226, five dose): 3.01E−5; Percent Growth (RPMI-8226; RPMI-8226, Log10 Concentration −4.0): −51%; Percent Growth (RPMI-8226; RPMI-8226, Log10 Concentration −5.0): 47%; Percent Growth (RPMI-8226; RPMI-8226, Log10 Concentration −6.0): 97%; Percent Growth (RPMI-8226; RPMI-8226, Log10 Concentration −7.0): 98%; Percent Growth (RPMI-8226; RPMI-8226, Log10 Concentration −8.0): 184%
